{"source": "paper PMC6747724", "about": "“Dynamic Metabolic Rewiring Enables Efficient Acetyl Coenzyme A Assimilation in Paracoccus denitrificans” (mBio, 2019)", "target": "T1, Isocitrate lyase (Icl) (Paracoccus denitrificans, UniProt A1B1S0)", "T1 construct": "gene Pden_1363; Recombinant His6-tagged Icl (Pden_1363)", "T1 sequence (A1B1S0 1-535)": "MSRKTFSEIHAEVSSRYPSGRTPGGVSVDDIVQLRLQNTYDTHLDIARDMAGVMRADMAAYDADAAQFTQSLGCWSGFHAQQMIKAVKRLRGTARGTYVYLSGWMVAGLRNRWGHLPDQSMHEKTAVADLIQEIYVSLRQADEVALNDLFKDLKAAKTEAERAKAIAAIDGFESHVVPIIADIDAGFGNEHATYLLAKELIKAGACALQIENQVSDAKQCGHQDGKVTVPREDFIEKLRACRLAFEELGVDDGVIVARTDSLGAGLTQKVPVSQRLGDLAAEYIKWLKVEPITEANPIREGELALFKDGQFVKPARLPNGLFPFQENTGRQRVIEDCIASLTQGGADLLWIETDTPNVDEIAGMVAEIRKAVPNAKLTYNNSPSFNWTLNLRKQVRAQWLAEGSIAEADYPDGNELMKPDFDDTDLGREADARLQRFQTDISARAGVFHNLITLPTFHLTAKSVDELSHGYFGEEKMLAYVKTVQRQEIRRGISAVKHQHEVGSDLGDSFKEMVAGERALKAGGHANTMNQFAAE", "experiment": "spectrophotometric phenylhydrazine-glyoxylate assay with purified enzyme, […] min preincubation with 3-NPA at […]°C", "format": "biochemical", "data": [{"smiles": "O=C(O)CC[N+](=O)[O-]", "note": "[3-NPA, 3-nitropropionate]", "values": [{"measurement": "IC50", "result": 34, "unit": "µM"}]}]}
